Results published in patent US10966911B2, “Melanin decomposition inhibitor” (KAO CORPORATION, priority 2016, dated 2021).

What was measured:
[1] = test system: melanocytes (HEMn-LP, HEMn-DP); assay: Intracellular melanin amount of melanocytes in melanocyte single culture system; format: cell-based, human; settings: melanocytes (lightly and darkly); proguanil 3, 10 or 30 μM; 7 days; versus DMSO; FIGS. 15A, 15B
Procedure: Normal human neonatal foreskin-derived epidermal melanocytes (Human Epidermal Melanocytes, neonatal, lightly pigmented donor (HEMn-LP) and Human Epidermal Melanocytes, neonatal, darkly pigmented donor (HEMn-DP); melanocytes (lightly) and melanocytes (darkly)), a growth medium for epidermal melanocytes (Medium254) and a growth additive (HMGS) for the medium were purchased from Thermo Fisher Scientific. Melanocytes were cultured at 37° C. in 5 vol % CO2 atmospheric conditions. Melanocytes (lightly and darkly) were seeded in 6-well plates at a cell density of 2×10^5 cells/well (2 mL/well). […] The following day, proguanil was added at a final concentration of 3, 10 or 30 μM and culture was performed at 37° C. in 5 vol % CO2 atmospheric conditions for 7 days. As a control, the same amount of DMSO was added. Note that medium replacement was carried out every 2 to 3 days. After completion of culture, the cell culture plates were washed with PBS and the cells were collected by use of a cell scraper in 1.5 mL micro tubes. To individual tubes, 2M NaOH (150 μL) was added and treatment was performed at 100° C. for 60 minutes to lyse the cells. Each of the lysates was centrifuged at a 21,640 g for 10 minutes at room temperature and the supernatant was recovered. The absorbance of the supernatant recovered was measured at a wavelength of 405 nm and the amount of melanin per well was calculated.

Pmel17 = assay: Melanin (melanosome) decomposition in epidermal keratinocytes that incorporated MNT-1 melanosome fraction; format: cell-based, human; settings: keratinocytes with incorporated melanosome, proguanil 10 or 30 μM, 2 days, FIG. 17
Procedure: Normal human neonatal foreskin-derived epidermal keratinocytes (Human Epidermal Keratinocytes, neonatal (HEKn) lightly; keratinocytes) were purchased from Thermo Fisher Scientific. Melanoma cell strain MNT-1 cells were given by Dr. […] (University La Sapienza, Rome, Italy). The keratinocytes were cultured in a grow medium (Epilife) epidermal keratinocytes (Thermo Fisher Scientific) supplemented with a growth additive (Humedia-KG) (manufactured by Kurabo Industries Ltd.) at 37° C. in 5 vol % CO2 atmospheric conditions. As a grow medium MNT-1 cells, RPMI1640 medium (Thermo Fisher Scientific) containing AIM-V medium and Fetal Bovine Serum (FES) each in an amount of 10% (v/v) was used and culture was performed at 37° C. in 5 vol % CO2 atmospheric conditions. A melanosome fraction was isolated and prepared from MNT-1 cells by a predetermined method (Murase et al. (2013), J Invest Dermatol, 133: 2416-2424). […] The resultant supernatant was subjected to quantitative determination of protein by BCA (bicinchoninic acid) method using Pierce BCA Protein Assay Kit (Thermo Fisher Scientific) and Bovine Serum Albumin (BSA) as a standard substance. […] Expression of β-actin as the internal standard was evaluated by using a monoclonal antibody specific for β-actin (Sigma-Aldrich, 1:5000). […]

human skin tissue = assay: Fontana-Masson staining of skin tissue cultured with proguanil; format: cell-based; settings: proguanil 180 μM; 5 days; versus DMSO control; FIG. 13 upper stage
Procedure: The human skin tissue, from which subcutaneous fat was previously trimmed, was cut into small pieces having a size of about 1 cm×1 cm by knife. The small pieces were cultured by using a 6-well plate at 37° C. under a 5 vol % CO2 atmospheric conditions. In the culture, Advanced DMEM medium containing a 10% (v/v) Fetal Bovine Serum (FBS) (Thermo Fisher Scientific, respectively) was used. […] More specifically, the skin tissue was embedded in paraffin and the resultant paraffine block was sliced to prepare paraffin sections of 5 μm in thickness. A Fontana ammonia silver solution (manufactured by MUTO PURE CHEMICALS Co., Ltd.) was allowed to react at room temperature for two hours to visually distinguish melanin granules. Thereafter, nuclear staining was performed using Kernechtrot solution (manufactured by MUTO PURE CHEMICALS Co., Ltd.). […] At the same time, HE staining was carried out.

## [H]/N=C(\N/C(=N/[H])Nc1ccc(Cl)cc1)NC(C)C [proguanil, 1-(p-chlorophenyl)-5-isopropyl biguanide]
[1]
  intracellular amount of melanin: does not increase intracellular amount of melanin
Pmel17
  color density of the cell sediment: confirmed to be increased in a concentration-dependent manner
Pmel17; versus DMSO
  intensity of the band of Pmel17: is increased in a concentration-dependent manner
Human skin tissue
  deposition of melanin in the epidermis: melanin is accumulated in a wider range of the epidermis
